Measured values published in US20230391826A1, “COMPOSITIONS AND METHODS FOR TREATING DISEASES” (Sanford Burnham Prebys Medical Discovery Institute, priority 2020, published 2023).
Values joined by “and” are separate entries in the source; they are usually repeats but may differ in a detail not shown here. Identical values can stand only once.

How the values were obtained:
EphA2 [1] = target: T1, EphA2 (Homo sapiens, UniProt P29317, L223R/L254R/V255R); test: Quantitative FRET of EphA2 oligomerization in transiently transfected HEK293 cells; type: cell-based; settings: swollen HEK293 cells
T1 construct: expressed in transfected cells; host or cells: HEK293 (HEK293T), transient transfection
Description: (§1) FIG. 4A-4E illustrates an example where dimers with different configurations induce EphA2 oligomerization and patching on the cell surface. (FIG. 4A-4D) Oligomerization curves comparing EphA2 WT and the G131Y and L223R/L254R/[…] interface mutants transiently expressed in HEK293 cells and treated with saturating concentrations of C-terminally linked dimer (2) or N-terminally linked dimer (5). The curves were obtained by fitting quantitative FRET data to monomer-oligomer models. […] Curves for higher order oligomerization are steeper than dimerization curves. (FIG. 4E) Two-photon integrated fluorescence images of HEK293 cells expressing EphA2-EYFP and EphA2-mTURQ and under hypo-osmotic conditions. The plasma membrane regions in the rectangular yellow outlines are enlarged in the insets at the bottom of each panel. The dimeric peptides induce patching of EphA2 WT on the plasma membrane and dimer (5) also induces patching of the EphA2 L223R/L254R/V255R mutant, while in the other cases the EphA2 interface mutations disrupt patching. The scale bar represents 10 μm for the main panels and 4 μm for the insets. # indicates the presence of EphA2 patches in the plasma membrane.
(§2) FIG. 12 illustrates an example of FRET efficiencies versus total receptor concentrations. […]
(§3) To examine the effects of dimeric peptide ligands on EphA2 oligomerization (including dimerization and higher order clustering), quantitative FRET experiments were performed in live cells. […] FRET is then measured in hundreds of individual cells with different EphA2 expression levels (FIG. 12), and the data are combined to yield average oligomeric fractions at different EphA2 concentrations (FIG. 4A-4D). […]
(§4) To obtain the data points for oligomerization curves (FIG. 12), the concentration of EphA2 in each small region of plasma membrane in which FRET efficiency was measured. Conversion of fluorescence intensity into accurate 2-dimensional EphA2 concentration requires a reversible hypo-osmotic treatment to swell the cells and smooth the wrinkled topology of their plasma membrane (FIG. 4E). […]

EphA2 [2] = target: T2, EphA2 (Homo sapiens, UniProt P29317, G131Y); test: as above; type: cell-based
T2 construct: expressed in transfected cells; host or cells: HEK293 (HEK293T), transient transfection
Description: as §1, §2, §3, §4

[3] = target: T3, EphA2 extracellular domain fused to Fc (EphA2-Fc) (Homo sapiens, UniProt P29317); test: ELISA: inhibition of ephrinA5-AP binding to immobilized EphA2-Fc; settings: Table 3; inhibition of EphA2-ephrinA5 interaction; averages ± SD; read-out: ICsa (nM) by ELISA
T3 construct: immobilized EphA2 extracellular domain fused to the Fc portion of an antibody (EphA2-Fc)
Description: FIG. 1A-1C illustrates an example of Potency and selectivity of EphA2-targeting dimeric peptides. (FIG. 1A) ELISAs comparing the ability of the peptides to inhibit binding of ephrin-A5 fused to alkaline phosphatase (ephrinA5-AP) to the immobilized EphA2 extracellular domain fused to the Fc portion of an antibody (EphA2-Fc). The graphs show averages ±SD from triplicate measurements from a representative experiment. IC50 values calculated from the fitted curves in each experiment are shown. Averages of IC50 values obtained from multiple experiments are shown in panel FIG. 1B and Table 3. The 10 nM peptide concentration is outlined in red. (FIG. 1B) Plot of the average IC50 values (listed in Table 3) for different ligands. […] (FIG. 1C) EphrinA5-AP binding to EphA receptors and ephrinB2-AP binding to EphB receptors in the presence of dimeric peptides representing each of the three configurations. Values are normalized to ephrin binding without peptide. The graphs show averages and SDs from triplicate measurements (with each measurement shown as a dot).

T2 sequence (P29317 24-976 G131Y): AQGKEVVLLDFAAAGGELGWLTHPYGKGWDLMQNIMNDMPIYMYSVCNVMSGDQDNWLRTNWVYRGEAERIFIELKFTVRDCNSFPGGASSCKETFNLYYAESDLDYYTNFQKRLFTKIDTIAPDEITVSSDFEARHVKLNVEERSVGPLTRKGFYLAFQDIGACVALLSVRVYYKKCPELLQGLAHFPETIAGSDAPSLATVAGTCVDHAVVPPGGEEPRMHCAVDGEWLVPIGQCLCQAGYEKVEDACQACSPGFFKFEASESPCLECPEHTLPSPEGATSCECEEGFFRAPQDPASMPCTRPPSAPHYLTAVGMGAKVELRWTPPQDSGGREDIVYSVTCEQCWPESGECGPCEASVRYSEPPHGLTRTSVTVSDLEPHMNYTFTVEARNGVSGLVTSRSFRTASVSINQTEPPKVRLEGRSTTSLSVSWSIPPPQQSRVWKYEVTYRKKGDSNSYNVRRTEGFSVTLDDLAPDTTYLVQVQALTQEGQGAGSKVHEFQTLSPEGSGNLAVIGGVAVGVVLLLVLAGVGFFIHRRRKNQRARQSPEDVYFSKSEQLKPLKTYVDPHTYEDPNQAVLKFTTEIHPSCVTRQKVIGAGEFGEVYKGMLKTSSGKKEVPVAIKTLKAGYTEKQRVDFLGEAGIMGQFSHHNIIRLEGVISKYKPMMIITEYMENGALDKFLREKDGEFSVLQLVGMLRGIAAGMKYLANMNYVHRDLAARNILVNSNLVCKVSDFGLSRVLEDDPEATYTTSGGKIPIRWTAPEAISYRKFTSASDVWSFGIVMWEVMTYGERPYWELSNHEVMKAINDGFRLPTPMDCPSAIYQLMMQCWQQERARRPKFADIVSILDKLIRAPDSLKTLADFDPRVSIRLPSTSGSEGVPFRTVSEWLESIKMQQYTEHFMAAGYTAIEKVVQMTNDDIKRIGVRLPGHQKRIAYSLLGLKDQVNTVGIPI
T3 sequence (P29317 24-537 limits assumed): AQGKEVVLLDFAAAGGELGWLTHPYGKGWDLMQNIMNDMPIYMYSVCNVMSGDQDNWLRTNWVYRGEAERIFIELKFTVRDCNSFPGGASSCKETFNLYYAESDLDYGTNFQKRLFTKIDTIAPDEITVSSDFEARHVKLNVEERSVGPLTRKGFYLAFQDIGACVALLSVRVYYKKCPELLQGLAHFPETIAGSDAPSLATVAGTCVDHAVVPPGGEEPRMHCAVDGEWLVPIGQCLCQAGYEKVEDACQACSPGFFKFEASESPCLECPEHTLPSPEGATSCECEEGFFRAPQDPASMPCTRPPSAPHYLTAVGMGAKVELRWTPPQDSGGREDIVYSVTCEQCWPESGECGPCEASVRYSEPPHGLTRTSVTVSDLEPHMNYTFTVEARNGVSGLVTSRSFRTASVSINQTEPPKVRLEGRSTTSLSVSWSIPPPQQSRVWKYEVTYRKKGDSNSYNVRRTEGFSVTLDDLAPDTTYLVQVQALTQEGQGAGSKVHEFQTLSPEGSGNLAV
T1 sequence (P29317 24-976 L223R/L254R/V255R): as the sequence (P29317 24-976 G131Y) above, with Y108G, L200R, L231R, V232R counted along it

CC(C)C[C@H](NC(=O)[C@H](Cc1c[nH]c2ccccc12)NC(=O)[C@H](C)NC(=O)CNC(=O)[C@@H](N)CSSC[C@H](N)C(=O)NCC(=O)N[C@@H](C)C(=O)N[C@@H](Cc1c[nH]c2ccccc12)C(=O)N[C@@H](CC(C)C)C(=O)N[C@@H](C)C(=O)N[C@@H](Cc1ccc(O)cc1)C(=O)N1CCC[C@H]1C(=O)N[C@@H](CC(=O)O)C(=O)N[C@@H](CO)C(=O)N[C@H](C(=O)N1CCC[C@H]1C(=O)N[C@@H](Cc1ccc(O)cc1)C(=O)N[C@@H](CCCNC(=N)N)C(=O)N1CCC[C@H]1C(=O)N[C@@H](CCCCN)C(=O)O)C(C)C)C(=O)N[C@@H](C)C(=O)N[C@@H](Cc1ccc(O)cc1)C(=O)N1CCC[C@H]1C(=O)N[C@@H](CC(=O)O)C(=O)N[C@@H](CO)C(=O)N[C@H](C(=O)N1CCC[C@H]1C(=O)N[C@@H](Cc1ccc(O)cc1)C(=O)N[C@@H](CCCNC(=N)N)C(=O)N1CCC[C@H]1C(=O)N[C@@H](CCCCN)C(=O)O)C(C)C [compound 5, CGA-WLA-YRPK dimer (N-ter)]
EphA2 patches on the plasma membrane, EphA2 L223R/L254R/V255R mutant (EphA2 [1]): causes patches
best-fit FRET oligomerization model, EphA2 G131Y mutant (EphA2 [2]; saturating peptide, HEK293 cells): dimer model
EphA2 patches on the plasma membrane, EphA2 G131Y mutant (EphA2 [2]; swollen HEK293 cells): not
IC50 [3]: 0.65 nM and 0.66 nM
